Where a SMILES comes first, the peptide text is derived from it. [ ]: non-standard residue; d: D form. The star is where a group is joined. dTyr(3,5-I2) = N[C@H](Cc1cc(I)c(O)c(I)c1)C(=O)O; X1 = [N-]=[N+]=Nc1cc(O)c(C(=O)*)cc1I; Hyp = O=C(O)[C@@H]1C[C@@H](O)CN1; dHyp = O=C(O)[C@H]1C[C@H](O)CN1
What was measured:
CHO cells = test: In situ binding of [125I]AAP10 on intact CHO cells; conditions: overnight at 4° C
Experimental: CHO cells are seeded in 24-multi well dishes in a density of 7,900 cells/cm^2 (∼ 15,000 cells/well) and grown for 3 Days In Vitro (DIV) in 1 ml/well of F-12K Nutrient Mixture supplemented with 10% Foetal Calf Serum (FCS) and 1000 units penicillin/1000 µg streptomycin (pen/strep) in an atmosphere of 5% CO2 and 100% humidity at 37° C. The cell density has at that time increased to 295,000 cells/cm^2 (152 pgprot/cell ∼ 85 µgprot/well).
On the day of analysis cells are removed from the incubator and each well is washed twice with, depending on the experiment, either 2 ml pre-warmed (37 °C) or ice-cold (0 °C) D-PBS to remove serum. It is important to keep the period to a minimum during which cells are left without physiological solutions to avoid that they dry out during washing procedures. The cold washed cells are used directly for binding assays while the warm washed cells are used for experiments with glucose and oxygen deprivation.
The in situ binding is performed by a modified protocol based on the description by Koenig. […] Cells incubate overnight at 4° C to reach equilibrium. Each well, one at the time, is then rinsed rapidly with 2 x 1 ml D-PBS and left to dry.
0.25 ml of 0.5 % Triton-X-100 (v/v) is added to each well and cells left for at least 1 h to solubilize. The extract is transferred to counting vials, the wells rinsed with 0.25 ml water and the rinse extract added to the corresponding vials. The vials are counted in a γ-counter. Table 3. In situ binding, IC50 (nM).

[1] = tested on: calcium-induced arrythmias; test: Calcium-induced arrhythmia model in mice (time to 2nd degree AV-block); format: in vivo; set-up: CaCl2 mice Score: scale not given here; conditions: for CaCl2 mice In vivo, % / CaCl2 mice Score: calcium chloride induced arrythmia model; for CaCl2 mice Score: no key for the score; for In vivo activity: maximal effect, increase in time until 2nd degree AV-block relative to vehicle, i.v.
Experimental: The antiarrhythmic effects of compounds of this invention were tested in an in vivo model of calcium-induced arrythmias according to the model of Lynch et al. ^[37]. […]. Commercial solutions of hypnorm and midazolam were diluted 1:1 in distilled water and one part diluted Hypnorm® is mixed with one part diluted midazolam.
The anaesthesia was induced by s.c. administration in a dose of […]. An i.v. cannula was inserted into the tail vein. The lead II ECG signal was recorded continuously by positioning of a stainless steel ECG electrodes on the right forelimb and on the left hind limb. The ground electrode was placed on the right hind limb. The signal was amplified (x 5.000-10.000) and filtered (0.1-150 Hz) via a Hugo Sachs Electronic model 689 ECG module. The analogue signal was digitised via a 12 bit data acquisition board (Data Translation model DT321) and sampled at 1000 Hz using the Notocord HEM 3.1 software for Windows NT. After a 10-min equilibration period, the test sample of drug was injected into the tail vein. Mice pre-treated with vehicle were tested as a measure of the control level in untreated animals. The injection volume was 100 µl in all experiments. Infusion of CaCl2 (30 mg/ml, 0.1 ml/min ≈ 100 mg/kg/min (calciumchlorid-2-hydrat, Riedel-de Haën, Germany)) was started 3 min after i.v. administration of drug or vehicle. The time lag to onset of 2nd degree AV-block was determined as the time from the start of CaCl2 infusion until the first arrhythmic event occured. An event of 2nd degree AV-block was defined as intermittent failure of the AV conduction characterised by a P-wave without the concomitant QRS complex.
Responses were expressed relative to the time until 2nd degree AV-block occurred in vehicle treated mice.

[2] = tested on: phosphoinositol turnover in rat primary cardiomyocytes; test: Phosphoinositol turnover in primary cardiomyocyte cultures; format: cell-based; conditions: for EC50: enhancement of phospho-inositol turnover
Experimental: Neonatal Wistar rats (1-2 days old) are used. Hank's calcium- and magnesium-free balanced salt solution, buffered with 10 mM HEPES is used for washing during cell separation procedures. The hearts are excised, the ventricles isolated and the tissue cut into small pieces. The myocardial cells are isolated by stepwise enzymatic degradation with collagenase 0.05%, as described by ^[35]. After repeated rounds of centrifugation and washing, the precipitated cells are resuspended in culture medium M199 with Earle's salt, 10% NCS, penicillin (75 U/mL), and streptomycin (75 U/mL) and pre-plated in a Petri dish for 90 minutes. The non-adherent cells are collected in the culture medium and plated in multidishes at 2.5*10^5 cells/well. The cultures are kept in a water-saturated CO2-incubator at 37°C. The cardiomyocyte cultures are used for analyses after 6-7 days.
Cardiomyocyte cultures are incubated for 48 hours in culture medium containing 4 µCi/mL myo-[2-^3H]inositol to label the inositol phospholipids. On the day of analysis the medium is replaced by a buffer solution containing lithium and incubated at 37°C, as described by Meier et al. ^[36]. After at least five minutes this buffer is replaced by the same volume of buffer containing test compound and incubated for exactly 20 minutes. The reaction is stopped by rapid replacement of the buffer by ice cold 4%v/v perchloric acid (PCA) and incubation for at least 20 minutes at 0°C. The PCA-extract is neutralised and the [^3H]inosltol phosphates are separated by anion-exchange chromatography using Amprep™ columns containing 100 mg SAX Quaternary amine. The [^3H]inositol mono-phosphates are eluted and radioactivity in the fraction measured by liquid scintillation counting.
Before adding test substances to the cultures, the cells are depleted of glucose and oxygen by incubating them in a N2-atmosphere in glucose-free lithium-buffer for 10 minutes at 37°C. Control cells are incubated likewise only at normal atmospheric conditions and in a buffer containing glucose.

[3] = tested on: cAMP formation in CHO cells; test: Inhibition of forskoline stimulated cAMP formation in CHO cells; format: cell-based; conditions: 10 µM forskoline, 20 min, cells pre-treated with glucose and oxygen deprivation
Experimental: CHO cells are seeded in 96-well microtiter plates in a density of 6,000 cells/cm^2 (∼ 2,000 cells/well) and grown for 4 days in vitro in 200 µl/well of growth media as described in the previous section.
On the day of analysis cells are removed from the incubator and washed twice with 200 µl pre-warmed (37°C) D-PBS (pH 7.2) to remove serum. Cells are incubated for 10 min in glucose free D-PBS and an N2-atmosphere as described in the previous section.
CHO cells are incubated at 37° C in D-PBS (pH 7.2) containing 6 mM glucose, 2.0 mM IBMX (phospodiesterase blocker), 10 µM forskoline (stimulates cAMP formation) and increasing concentrations of test peptide. The reaction is stopped after 20 min by addition of 20 µl 0.5 M HCl and left for at least 20 min at room temperature.
The content of cAMP is analysed by mixing 20 µl of the acid cell extract into FlashPlate™ wells (NEN assay kit SMP001) containing 180 µl [^12SI]cAMP tracer solution. FlashPlates™ are incubated overnight at 4° C and plate bound radioactivity counted in TopCount (Packard Instrument). Data are calculated as described in the previous section.

[4] = tested on: isolated perfused rabbit hearts; test: Isolated perfused rabbit heart (Langendorff), APD90 dispersion during hypokalemic ischemia; conditions: 10^-10 mol/l
[5] = target: murine heart tissue preparations; test: Displacement of [125I]AAP10 from murine heart tissue preparations; format: binding, mice; conditions: displacement of 0.8 nM [125I]AAP10, filtrate; read-out: Filtrate IC50
Experimental: Hearts are excised from mice (Balb/cJ, 20 g), rinsed twice in ice-cold (0°C) 0.32 M sucrose and homogenized on ice in 10 volumes of sucrose with an Ultra Turrax homogeniser (1000 rpm) for 2 minutes. The homogenate is centrifuged at 1000 gmea" for 10 minutes at 4° C and the supernatant collected and filtrated through 4 layers of gauze. The filtrate is then centrifuged at 50,000 gmean for 45 min at 4° C and the pellet resuspended in 10 volorg. wet weight ice-cold distilled water and incubated for 60 min at 0° C and re-centrifuged at 50,000 gmean at 45 min at 4° C. The resulting pellet is resuspended in 2 vol org. wet weight of PBS (Phosphate Buffered Saline) and stored at - 80° C until use.

[6] = In vitro plasma and serum stability, human; format: in vitro ADME; conditions: for T1/2 PLASMA, HEPARIN HUMAN: 37°C
Experimental: (§1) The stability of peptides is analysed in serum and plasma. The peptides are incubated at 37°C in plasma or serum and samples taken at approx. 9 regular intervals between t=0 and t=156 min are analysed by HPLC.
This is done by subsequent injections of the drug, plasma, and a co-injection with the drug and the plasma, followed by optimisation of the LC method parameters until a satisfactory separation is obtained. Three parallel experiments are performed for each plasma type.100 ml of peptide is mixed with 900 ml plasma at t = 0 and incubated at 37°C (drug-plasma mixture conc. 0.1 mg/ml). Samples of 100 ml of the drug-plasma mixture are removed at appropriate intervals and the degradation stopped by precipitation of the sample with 10 ml MeCN:TFA 50:50 v/v. A control plasma sample without the drug treated in the same manner is also taken. The plasma samples are centrifuged for 15 min. at 12,000 rpm (Eppendorf centrifuge) at ambient temperature. The resulting supernatant solution is transferred to 300 ml HP autosamler vials and analyzed by HPLC. The samples are analyzed in the following order: blank, the peptide at 0.1 mg/mL, the plasma without the peptide, the three parallel samples for t = 0, the three parallel samples for t = 5 min. the three parallel samples for t = 10 min. etc. And finally the three parallel samples for t = 0 are repeated to make sure that there have been no degradation or other failure during the analyses. The sample concentrations (peak height in mAU) are plotted vs. time and fitted to a function describing a mono exponential decay (Excel). […] Table 7. Results of in vitro stability test in plasma and serum, T1/2 in min and hrs

[7] = In vitro plasma and serum stability, rabbit; format: in vitro ADME; conditions: 37°C
Experimental: as §1
This is done by subsequent injections of the drug, plasma, and a co-injection with the drug and the plasma, followed by optimisation of the LC method parameters until a satisfactory separation is obtained. Three parallel experiments are performed for each plasma type.[…] at t = 0 and incubated at 37°C (drug-plasma mixture conc. 0.1 mg/ml). Samples of 100 ml of the drug-plasma mixture are removed at appropriate intervals and the degradation stopped by precipitation of the sample with 10 ml MeCN:TFA 50:50 v/v. A control plasma sample without the drug treated in the same manner is also taken. The plasma samples are centrifuged for 15 min. at 12,000 rpm (Eppendorf centrifuge) at ambient temperature. The resulting supernatant solution is transferred to 300 ml HP autosamler vials and analyzed by HPLC. The samples are analyzed in the following order: blank, the peptide at 0.1 mg/mL, the plasma without the peptide, the three parallel samples for t = 0, the three parallel samples for t = 5 min. the three parallel samples for t = 10 min. etc. […]

Compound	IC50 (CHO cells) [nM]	CaCl2 mice In vivo, % [1]	CaCl2 mice Score [1]	further results
CC(=O)N[C@H](Cc1cc(I)c(O)c(I)c1)C(=O)N1CCC[C@@H]1C(=O)N1C[C@@H](O)C[C@@H]1C(=O)NCC(=O)N[C@H](C)C(=O)NCC(N)=O [Compound 24] (Ac-[dTyr(3,5-I2)][dP][dHyp]G[dA]G-NH2)	65			
C[C@H](NC(=O)CNC(=O)[C@@H]1C[C@@H](O)CN1C(=O)[C@@H]1CCCN1C(=O)c1cc(I)c(N=[N+]=[N-])cc1O)C(=O)NCC(N)=O [Compound 32] (X1-P[Hyp]GAG-NH2)	0.5			
H-GAG-DHypAY-NH2		29 +/- 9%	1	
H-GAGGPY-NH2 [H-GAGGPY-NH2]			2	
H-GAG[Hyp]PY-NH2 [AAP10, reference compound]	130		3	EC50 value relative to the EC50 value for Compound 2 ([2]; during metabolic stress induced by anoxia and glucose deprivation): 10 fold; EC50 value relative to the EC50 value for Compound 2 ([2]; during normoxia): 200 fold; EC50 ([2]; Glucose and oxygen deprivation): 100 nM; EC50 ([2]; Normal conditions): 2000 nM; EC50 [3]: 11 nM; increase in APD90 dispersion during hypokalemic, acute myocardial ischemia [4]: ineffective; IC50 [5]: 1.2 nM; In vivo activity [1]: +++ (+++ refers to >60% increase in time until arrhythmia)
H-GP[Hyp]GAG-OH [AAP, reference compound]	0.8		2	EC50 [3]: 53 nM; IC50 [5]: 1.2 nM; In vivo activity [1]: ++ (++ refers to 30-50% increase in time until arrhythmia)
H-[D-Hyp^4]AAP-10-NH2		28 +/- 10%	1	
HPP-PHypGAGKKKKKK-NH2		21 +/- 17%	1	
HPP-PHypGAGKKKKKK-OH		80 +/- 17%	3	
[Pro^4]AAP10-NH2			3	
cyclo(GAG[Hyp]PYN)		57 +/- 8%	2	T1/2 PLASMA, HEPARIN HUMAN [6]: 9 hrs ± 1%; Human plasma half life [6]: 13 h; T1/2 PLASMA, HEPARIN RABBIT [7]: 30 hrs ± 8%
cyclo(GAG[Hyp]PYQ)		48 +/- 14%	2	T1/2 PLASMA, HEPARIN HUMAN [6]: 15 hrs ± 1%; Human plasma half life [6]: 15 h; T1/2 PLASMA, HEPARIN RABBIT [7]: 14 hrs ± 2%
des-Hyp^4-[Asn^5]AAP-10-NH2		53 +/- 15%	2	

From patent EP1370276B1, “INTERCELLULAR COMMUNICATION FACILITATING COMPOUNDS AND THEIR MEDICAL USE” (Zealand Pharma A/S, priority 2001, dated 2002)
